PMC12655351, “Synthesis and Anticancer Activity Evaluation of New 5-((5-Nitrofuran-2-yl)allylidene)-2-thioxo-4-thiazolidinones” (Pharmaceuticals, 2025)
Values joined by “and” are separate entries in the source; they are usually repeats but may differ in a detail not shown here. Equal values may be shown once. Read-outs that look alike come from different tables or passages of the source.

Legend:
[1] = test system: MCF-7 cell line; assay: Annexin V-FITC/propidium iodide flow cytometry; assay type: cell-based, human; conditions: 24 h
Protocol: The three chosen compounds, 2b, 12b, and 14b, were tested using Annexin V-FITC and propidium iodide to assess their effects on apoptosis induction on MCF-7 and MDA-MB-231 cell lines. To evaluate the population of cells, four states were determined: unstained cells (alive), cells stained with propidium iodide (necrotic), cells stained with FITC-labeled Annexin V (early apoptotic), and cells stained with both Annexin V and propidium iodide (late apoptotic). […] In a concentration of 5 μM the values were 8.5% and 12.2%, respectively. For 12b in a concentration equal to 1 μM, the obtained results showcased 7.2% of cells in early and late apoptosis and 0.7% in a state of necrosis. For 5 μM concentration results were 23.7% and 11.5%, respectively.
To conduct induction of apoptosis on MCF-7 and MDA-MB-231 cell lines, three compounds with the lowest IC50 values were selected (2b, 12b, 14b). The concentration of these compounds depended on the cell line. For MCF-7 cell line concentrations of 1 and 5 μM were used, while for MDA-MB-231 cell line concentrations were 5 and 10 μM. For both cell lines doxorubicin was used as a reference compound in 1 and 5 μM concentrations. This study was evaluated using a flow cytometer (BD FACSCanto II, Becton Dickinson Biosciences Systems, San Jose, CA, USA) and Annexin V binding Apoptosis Detection Kit II (BD Biosciences, San Diego, CA, USA). Cells were seeded in 6-well culture plates cultured in accordance with the previously described methodology. The medium was removed from wells and then cells were washed with PBS. A cell suspension was prepared in the binding buffer provided in the kit at a concentration of 1 × 10^6 cells/mL. A total of 100 µL of cell suspension was collected from each sample and transferred to the tubes. Afterwards, 5 µL of Annexin V-FITC and 4 µL of propidium iodide (PI) were added to each tube and then the tubes were incubated in the dark for 15 min at room temperature. After incubation, the suspension was supplemented to 300 µL with a binding buffer and immediately read in a BD FACSCanto II flow cytometer (Becton Dickinson Biosciences, San Jose, CA, USA), where 10,000 events per sample were measured. Results were analyzed using FACSDiva Software Version 6.1.3. (BD Biosciences Systems, San Jose, CA, USA).

[2] = test system: RPMI-8226; conditions: RPMI-8226, 48 h
[3] = test system: NCI-H23; conditions: for CC50: human
[4] = test system: COLO 205
[5] = test system: 786-0; conditions: 786-0, 48 h
[6] = test system: HS 578T; conditions: 48 h
[7] = test system: BT-549; conditions: for growth GP: BT-549, 10 μM
[8] = test system: Ovarian cancer; conditions: Ovarian cancer subpanel
[9] = test system: HCT-116; assay: cells; conditions: Homo sapiens, HCT-116, 48 h
[10] = test system: SF-268; assay: cells; conditions: Homo sapiens, SF-268, 48 h; for CC50: read-out: LC50, SF-268, 48 h
[11] = test system: OVCAR-8; assay: cells; conditions: Homo sapiens, OVCAR-8, 48 h; for CC50: read-out: LC50, OVCAR-8, 48 h
[12] = test system: CAKI-1; assay: cells; conditions: Homo sapiens, CAKI-1, 48 h
[13] = test system: DU-145; assay: cells; conditions: Homo sapiens, DU-145, 48 h; for CC50: read-out: LC50, DU-145, 48 h
[14] = test system: HS 578T; assay: cells; conditions: Homo sapiens, 48 h; for GI50: HS 578T; for CC50: read-out: LC50
[15] = test system: BT-549; assay: cells; conditions: Homo sapiens, BT-549, 48 h; for CC50: read-out: LC50, BT-549, 48 h
[16] = test system: Non-small cell lung cancer; assay: cells; conditions: Homo sapiens; for GI50: read-out: MG_MID GI50; for CC50: read-out: MG_MID LC50
[17] = test system: SNB-19; assay: NCI-60 SRB screen; conditions: for GI50 / CC50 / TGI: SNB-19, 48 h; for CC50: read-out: LC50, SNB-19, 48 h
[18] = test system: SNB-75; assay: NCI-60 SRB screen; conditions: SNB-75, 48 h; for CC50: read-out: LC50, SNB-75, 48 h
[19] = test system: SK-MEL-2; assay: NCI-60 SRB screen; conditions: SK-MEL-2, 48 h; for CC50: read-out: LC50, SK-MEL-2, 48 h
[20] = test system: UACC-62; assay: NCI-60 SRB screen; conditions: for growth GP: UACC-62, 10 μM, 48 h
[21] = test system: ACHN; assay: NCI-60 SRB screen; conditions: 48 h; for growth GP: 10 μM; for CC50: read-out: LC50, ACHN, 48 h
[22] = test system: NCI-H522; assay: NCI-60 SRB screen; conditions: NCI-H522, 48 h
[23] = test system: RXF 393; assay: NCI-60 SRB screen
[24] = Homo sapiens, UACC-62, 48 h, read-out: LC50, UACC-62, 48 h

O=C(O)CCCCCN1C(=O)/C(=C/C=C/c2ccc([N+](=O)[O-])o2)SC1=S [14b, 6-((Z)-5-((E)-3-(5-nitrofuran-2-yl)allylidene)-4-oxo-2-thioxothiazolidin-3-yl)hexanoic acid]
cells in late and early apoptosis combined ([1]; MCF-7, 1 μM): 6.9% | necrotic cell population ([1]; MCF-7, 1 μM): 0.6% | cells in late and early apoptosis combined ([1]; MCF-7, 5 μM): 29.2% | necrotic cell population ([1]; MCF-7, 5 μM): 11.7% | TGI [2]: 1320 nM | GI50 ([3]; NCI-H23, 48 h): 1230 nM | TGI ([3]; NCI-H23, 48 h): 3100 nM and 2690 nM | CC50 ([3]; 48 h): 5890 nM | GI50 ([4]; COLO 205, 48 h): 970 nM | TGI ([4]; COLO 205, 48 h): 3080 nM and 2350 nM | CC50 ([4]; human, 48 h): 5610 nM | GI50 [5]: 320 nM | TGI [5]: 2060 nM and 1230 nM | GI50 [6]: 790 nM | TGI [6]: 6440 nM and 7760 nM | growth GP ([7]; 48 h): -97.16% | CC50 ([7]; human, 48 h): 3030 nM | MG_MID TGI [8]: 2920 nM | GI50 [9]: 310 nM | GI50 [10]: 1260 nM | CC50 [10]: 5820 nM | GI50 [11]: 570 nM | CC50 [11]: 6430 nM | GI50 [12]: 830 nM | GI50 [13]: 1520 nM | CC50 [13]: 5440 nM | GI50 [14]: 1440 nM | CC50 [14]: > 100000 nM | CC50 [15]: 5070 nM | GI50 [16]: 1480 nM | CC50 [16]: 21800 nM | GI50 ([17]; Homo sapiens): 1760 nM | CC50 ([17]; Homo sapiens): 7430 nM | GI50 [17]: 1450 nM | TGI [17]: 3620 nM and 3110 nM | CC50 ([18]; Homo sapiens): 5680 nM | TGI [18]: 2610 nM and 1430 nM | CC50 ([19]; Homo sapiens): 6010 nM | TGI [19]: 2950 nM and 2330 nM | GI50 ([20]; Homo sapiens, UACC-62, 48 h): 370 nM | CC50 [20, 24]: 4080 nM | growth GP [20]: -96.88% | GI50 ([20]; UACC-62, 48 h): 250 nM | CC50 ([20]; read-out: LC50, UACC-62, 48 h): 2820 nM | growth GP [21]: -99.76% | GI50 [21]: 1210 nM | TGI [21]: 2820 nM and 2460 nM | GI50 ([21]; Homo sapiens): 1500 nM | CC50 ([21]; Homo sapiens): 5310 nM

CC(C(=O)O)N1C(=O)/C(=C/C=C/c2ccc([N+](=O)[O-])o2)SC1=S (stereo not shown) [2b, 2-((Z)-5-((E)-3-(5-Nitrofuran-2-yl)allylidene)-4-oxo-2-thioxothiazolidin-3-yl)propanoic acid]
cells in late and early apoptosis combined ([1]; MCF-7, 1 μM): 7.7% | necrotic cell population ([1]; MCF-7, 1 μM): 0.7% | cells in late and early apoptosis combined ([1]; MCF-7, 5 μM): 8.5% | necrotic cell population ([1]; MCF-7, 5 μM): 12.2%

O=C(O)CCN1C(=O)/C(=C/C=C/c2ccc([N+](=O)[O-])o2)SC1=S [12b, 3-((Z)-5-((E)-3-(5-Nitrofuran-2-yl)allylidene)-4-oxo-2-thioxothiazolidin-3-yl)propanoic acid]
cells in late and early apoptosis combined ([1]; MCF-7, 1 μM): 7.2% | necrotic cell population ([1]; MCF-7, 1 μM): 0.7% | cells in late and early apoptosis combined ([1]; MCF-7, 5 μM): 23.7% | necrotic cell population ([1]; MCF-7, 5 μM): 11.5% | TGI [2]: 4480 nM | TGI ([3]; NCI-H23, 48 h): 3370 nM | TGI ([4]; COLO 205, 48 h): 12400 nM | TGI [5]: 3540 nM | TGI [6]: 7930 nM | TGI ([7]; BT-549, 48 h): 2880 nM | MG_MID TGI [8]: 5840 nM | GI50 [10]: 1440 nM | CC50 [10]: 7020 nM | GI50 [11]: 1840 nM | CC50 [11]: 28200 nM | GI50 [12]: 1420 nM | GI50 [13]: 2610 nM | CC50 [13]: 33300 nM | GI50 [14]: 1450 nM | CC50 [14]: > 100000 nM | GI50 [15]: 1350 nM | CC50 [15]: 6130 nM | GI50 [16]: 2590 nM | CC50 [16]: 25900 nM | GI50 ([22]; Homo sapiens): 1100 nM | CC50 ([22]; Homo sapiens, read-out: LC50, NCI-H522, 48 h): 5520 nM | TGI [22]: 2460 nM | GI50 ([17]; Homo sapiens): 2300 nM | CC50 ([17]; Homo sapiens): 22900 nM | TGI [17]: 6370 nM | GI50 ([18]; Homo sapiens): 1100 nM | CC50 ([18]; Homo sapiens): 14100 nM | TGI [18]: 3670 nM | GI50 ([19]; Homo sapiens): 1440 nM | CC50 ([19]; Homo sapiens): 5680 nM | TGI [19]: 2860 nM | GI50 ([20]; Homo sapiens, UACC-62, 48 h): 650 nM | CC50 [20, 24]: 4160 nM | growth GP [20]: -97.43% | TGI ([20]; UACC-62, 48 h): 2000 nM | growth GP [21]: -99.00% | TGI [21]: 2970 nM | GI50 ([21]; Homo sapiens): 1610 nM | CC50 ([21]; Homo sapiens): 5460 nM | GI50 ([23]; Homo sapiens, RXF 393, 48 h): 1580 nM | TGI ([23]; RXF 393, 48 h): 3020 nM

O=C(O)CCCN1C(=O)/C(=C/C=C/c2ccc([N+](=O)[O-])o2)SC1=S [13b, 4-((Z)-5-((E)-3-(5-Nitrofuran-2-yl)allylidene)-4-oxo-2-thioxothiazolidin-3-yl)butanoic acid]
TGI [2]: 1580 nM | growth GP ([3]; NCI-H23, 10 μM, 48 h): -93.85% | TGI ([3]; NCI-H23, 48 h): 3090 nM and 2040 nM | CC50 ([3]; 48 h): 5700 nM | GI50 [5]: 280 nM | TGI [5]: 1300 nM and 900 nM | growth GP ([7]; 48 h): -98.54% | MG_MID TGI [8]: 2990 nM | GI50 [9]: 310 nM | GI50 [11]: 460 nM | GI50 [12]: 670 nM | GI50 [13]: 1090 nM | CC50 [13]: 4920 nM | CC50 [14]: > 100000 nM | GI50 [16]: 1210 nM | CC50 [16]: 24600 nM | CC50 ([17]; Homo sapiens): 6050 nM | growth GP ([17]; SNB-19, 10 μM, 48 h): -96.10% | TGI [17]: 3160 nM and 2100 nM | GI50 ([18]; Homo sapiens): 380 nM | CC50 ([18]; Homo sapiens): 8730 nM | GI50 [18]: 320 nM | TGI [18]: 1990 nM and 1370 nM | CC50 ([19]; Homo sapiens): 6120 nM | GI50 ([20]; Homo sapiens, UACC-62, 48 h): 310 nM | growth GP [20]: -95.10% | GI50 ([20]; UACC-62, 48 h): 180 nM | growth GP [21]: -100.00% | TGI [21]: 2210 nM and 1350 nM | CC50 ([21]; Homo sapiens): 4700 nM | growth GP ([23]; RXF 393, 10 μM, 48 h): -97.90%
